According to patent publication USRE46856E1, “Substituted 2,3-dihydroimidazo[1,2-c]quinazoline derivatives useful for treating hyper-proliferative disorders and diseases associated with angiogenesis” (Bayer Intellectual Property GmbH, priority 2006, dated 2018):
Read-outs that look alike come from different tables or passages of the source.

Test system: IGF-1 induced AKT phosphorylation in A549 cells
Test: IGF-1 induced AKT phosphorylation assay (A549 cell assay)
Format: cell-based
Details: Homo sapiens
Excerpt: [Determination of IC50 Values of Compounds in Cell Based Assays of PI3K Activity] 96-well collagen treated clear bottom/black sided Costar plates were purchased from CORNING LIFE SCIENCES (Corning, N.Y.; at.#3904). Gibco RPMI medium (Cat.#11875), Biosource anti-phospho-AKT([…]) antibody (Cat.#44-621G) and recombinant IGF-1 (Cat.#PHG0074) were purchased from INVITROGEN (Carlsbad, Calif.). The secondary donkey anti-rabbit IgG horse radish peroxidase conjugate (Cat. #N[…]) and ECL chemiluminesence reagent (Cat.#RPN2209) were purchased from […] (Buckinghamshire, UK). Cell culture tested bovine serum albumin solution (35% in DPBS; Cat.#A7979) and all other chemicals were purchased from SIGMA (St. Louis, Mo.). The Wallac Victor2 1420 Multilabel HTS Counter was purchased from […] (Wellesley, Mass.) […] All wells (except no IGF-1 controls) were then treated with 25 ng/ml IGF-1 for 10 minutes at 37° C. in a 5% CO2 incubator. Following removal of the supernatants and washing with the wells with TBS (50 mM Tris pH 8.0 containing 138 mM NaCL and 27 mM KCl), 200 µL of 3.7% formaldehyde in TBS was added to each well, and the plate was incubated at 4° C. for 10 minutes. Supernatants were once again removed and replaced with 50 μL Methanol (-20° C.) and the plate incubated at 4° C. for 5 minutes. 200 μL of 0.1% BSA in TBS was then added to each well and the plate incubated at room temperature for 1⁄2 hour. Supernatants were removed and 50 μL of a solution comprising the primary anti-phospho-AKT([…]) antibody diluted 1:250 in TBS containing 0.1% BSA was added to each well (except control/background wells). The plate was then incubated for 11⁄2 hour at room temperature. Supernatants were removed, each well was washed 3 times with 200 μL TBS, and 100 μL of a solution containing the secondary donkey anti-rabbit IgG antibody HRP-conjugate diluted 1:100 in TBS-T (TBS containing 0.1% triton). Plates were then incubated for 1 hour at room temperature. After removing the secondary antibody, each well was washed 6 times with cold TBS-T, 100 μL of ECL was added to each well, and the plate was placed on an orbital shaker for 1 minute. The plates were then read on a Wallac Victor2 1420 Multilabel HTS Counter using the luminometry window (maximum light detection is measured at […]). IC50 values were determined from the inhibition curve.

[1] = A549 cells, 25 ng/ml IGF-1, phospho-AKT(Ser 473), read-out: average IC50 in the A549 cell assay

IC50 [1] [nM] | SMILES | IC50 (A549, read-out: average IC50 in the A549 cell assay) [nM]
100 to 1000 | COc1c(OCCCN2CCOCC2)ccc2c1N=C(NC(=O)c1cncnc1)N1CCN=C21 [Example 1, N-[7-methoxy-8-(3-morpholin-4-ylpropoxy)-2,3-dihydroimidazo[1,2-c]quinazolin-5-yl]pyrimidine-5-carboxamide] | 
< 100 | COc1c(OCCCN2C[C@@H](C)O[C@@H](C)C2)ccc2c1N=C(NC(=O)c1cccnc1)N1CCN=C21 [Example 2, N-(8-{3-[(2R,6S)-2,6-dimethylmorpholin-4-yl]propoxy}-7-methoxy-2,3-dihydroimidazo[1,2-c]quinazolin-5-yl)nicotinamide] | 
< 100 | COc1c(OCCCN2C[C@@H](C)O[C@@H](C)C2)ccc2c1N=C(NC(=O)c1sc(C)nc1C)N1CCN=C21 [Example 3, N-(8-{3-[(2R,6S)-2,6-dimethylmorpholin-4-yl]propoxy}-7-methoxy-2,3-dihydroimidazo[1,2-c]quinazolin-5-yl)-2,4-dimethyl-1,3-thiazole-5-carboxamide] | 
100 to 1000 | COc1c(OCCCN2CCOCC2)ccc2c1N=C(NC(=O)c1cnc(N)s1)N1CCN=C21 [Example 4, 2-amino-N-[7-methoxy-8-(3-morpholin-4-ylpropoxy)-2,3-dihydroimidazo[1,2-c]quinazolin-5-yl]-1,3-thiazole-5-carboxamide] | 
100 to 1000 | COc1c(OCCCN2CCOCC2)ccc2c1N=C(NC(=O)c1ccnc(N)c1)N1CCN=C21 [Example 5, 2-amino-N-[7-methoxy-8-(3-morpholin-4-ylpropoxy)-2,3-dihydroimidazo[1,2-c]quinazolin-5-yl]isonicotinamide] | 
< 100 | COc1c(OCCCN2CCOCC2)ccc2c1N=C(NC(=O)c1sc(N)nc1C)N1CCN=C21 [Example 6, 2-amino-N-[7-methoxy-8-(3-morpholin-4-ylpropoxy)-2,3-dihydroimidazo[1,2-c]quinazolin-5-yl]-4-methyl-1,3-thiazole-5-carboxamide] | 
< 100 | CCCc1nc(N)ncc1C(=O)NC1=Nc2c(ccc(OCCCN3CCOCC3)c2OC)C2=NCCN12 [Example 7, 2-amino-N-[7-methoxy-8-(3-morpholin-4-ylpropoxy)-2,3-dihydroimidazo[1,2-c]quinazolin-5-yl]-4-propylpyrimidine-5-carboxamide] | 
< 100 | CCN1CCOC(CCOc2ccc3c(c2OC)N=C(NC(=O)c2cccnc2)N2CCN=C32)C1 (stereo not drawn) [Example 8, N-{8-[2-(4-ethylmorpholin-2-yl)ethoxy]-7-methoxy-2,3-dihydroimidazo[1,2-c]quinazolin-5-yl}nicotinamide] | 
100 to 1000 | COc1c(OCCN(C)C)ccc2c1N=C(NC(=O)c1cncnc1)N1CCN=C21 [Example 9, N-{8-[2-(dimethylamino)ethoxy]-7-methoxy-2,3-dihydroimidazo[1,2-c]quinazolin-5-yl}pyrimidine-5-carboxamide] | 
 | COc1c(OCCCN2CCOCC2)ccc2c1N=C(NC(=O)c1cnc(N)nc1)N1CCN=C21 [Example 13, 2-amino-N-[7-methoxy-8-(3-morpholin-4-ylpropoxy)-2,3-dihydroimidazo[1,2-c]quinazolin-5-yl]pyrimidine-5-carboxamide] | < 100
< 100 | COc1c(OCC(O)CN2CCOCC2)ccc2c1N=C(NC(=O)c1cccnc1)N1CCN=C21 (stereo not drawn) [Example 16, N-[8-(2-hydroxy-3-morpholin-4-ylpropoxy)-7-methoxy-2,3-dihydroimidazo[1,2-c]quinazolin-5-yl]nicotinamide] | 
< 100 | COc1c(OCCCN2CCOC(CO)C2)ccc2c1N=C(NC(=O)c1cccnc1)N1CCN=C21 (stereo not drawn) [Example 18, N-(8-{3-[2-(hydroxymethyl)morpholin-4-yl]propoxy}-7-methoxy-2,3-dihydroimidazo[1,2-c]quinazolin-5-yl)nicotinamide] | 
< 100 | COCCN1CCOC(COc2ccc3c(c2OC)N=C(NC(=O)c2cccnc2)N2CCN=C32)C1 (stereo not drawn) [Example 22, N-(7-methoxy-8-{[4-(2-methoxyethyl)morpholin-2-yl]methoxy}-2,3-dihydroimidazo[1,2-c]quinazolin-5-yl)nicotinamide] | 
< 100 | COc1c(OCC2CN(C)CCO2)ccc2c1N=C(NC(=O)c1cccnc1)N1CCN=C21 (stereo not drawn) [Example 23, N-{7-methoxy-8-[(4-methylmorpholin-2-yl)methoxy]-2,3-dihydroimidazo[1,2-c]quinazolin-5-yl}nicotinamide] | 
100 to 1000 | COc1c(OCCCN2CCOCC2)ccc2c1N=C(NC(=O)c1cncn1C)N1CCN=C21 [Example 30, N-[7-methoxy-8-(3-morpholin-4-ylpropoxy)-2,3-dihydroimidazo[1,2-c]quinazolin-5-yl]-1-methyl-1H-imidazole-5-carboxamide] | 
< 100 | COc1c(OCCCN2CCOCC2)ccc2c1N=C(NC(=O)c1ccc(N)nc1C)N1CCN=C21 [Example 31, 6-amino-N-[7-methoxy-8-(3-morpholin-4-ylpropoxy)-2,3-dihydroimidazo[1,2-c]quinazolin-5-yl]-2-methyl nicotinamide] | 
< 100 | COc1c(OCCCN2CCOCC2)ccc2c1N=C(NC(=O)c1cnc(N)nc1C)N1CCN=C21 [Example 32, 2-amino-N-[7-methoxy-8-(3-morpholin-4-ylpropoxy)-2,3-dihydroimidazo[1,2-c]quinazolin-5-yl]-4-methylpyrimidine-5-carboxamide] | 
< 100 | COc1c(OCCCN2CCOCC2)ccc2c1N=C(NC(=O)c1cnc(N)c(Br)c1)N1CCN=C21 [Example 33, 6-amino-5-bromo-N-[7-methoxy-8-(3-morpholin-4-ylpropoxy)-2,3-dihydroimidazo[1,2-c]quinazolin-5-yl]nicotinamide] | 
100 to 1000 | COc1c(OCCCN2CCOCC2)ccc2c1N=C(NC(=O)c1cnc(N)o1)N1CCN=C21 [Example 34, 2-amino-N-[7-methoxy-8-(3-morpholin-4-ylpropoxy)-2,3-dihydroimidazo[1,2-c]quinazolin-5-yl]-1,3-oxazole-5-carboxamide] | 
< 100 | COc1c(OCC2CNCCO2)ccc2c1N=C(NC(=O)c1cccnc1)N1CCN=C21 (stereo not drawn) [Example 35, N-[7-methoxy-8-(morpholin-2-ylmethoxy)-2,3-dihydroimidazo[1,2-c]quinazolin-5-yl]nicotinamide] | 
100 to 1000 | COc1c(OCCCN(C)C)ccc2c1N=C(NC(=O)c1cnc(NCCN(C)C)nc1)N1CCN=C21 [Example 36, 2-{[2-(dimethylamino)ethyl]amino}-N-{8-[3-(dimethylamino)propoxy]-7-methoxy-2,3-dihydroimidazo[1,2-c]quinazolin-5-yl}pyrimidine-5-carboxamide] | 
< 100 | COc1c(OCCCN(C)C)ccc2c1N=C(NC(=O)c1cnc(N)s1)N1CCN=C21 [Example 37, 2-amino-N-{8-[3-(dimethylamino)propoxy]-7-methoxy-2,3-dihydroimidazo[1,2-c]quinazolin-5-yl}-1,3-thiazole-5-carboxamide] | 
100 to 1000 | COc1c(OCCCN2CCOCC2)ccc2c1N=C(NC(=O)c1cnc(NCCO)nc1)N1CCN=C21 [Example 40, 2-[(2-hydroxyethyl)amino]-N-[7-methoxy-8-(3-morpholin-4-ylpropoxy)-2,3-dihydroimidazo[1,2-c]quinazolin-5-yl]pyrimidine-5-carboxamide] | 
< 100 | COc1c(OCCCN(C)C)ccc2c1N=C(NC(=O)c1cnc(N)nc1)N1CCN=C21 [Example 42, 2-amino-N-{8-[3-(dimethylamino)propoxy]-7-methoxy-2,3-dihydroimidazo[1,2-c]quinazolin-5-yl}pyrimidine-5-carboxamide] | 
> 1000 | COCCNc1ncc(C(=O)NC2=Nc3c(ccc(OCCCN4CCOCC4)c3OC)C3=NCCN23)cn1 [Example 44, 2-[(2-methoxyethyl)amino]-N-[7-methoxy-8-(3-morpholin-4-ylpropoxy)-2,3-dihydroimidazo[1,2-c]quinazolin-5-yl]pyrimidine-5-carboxamide] | 
100 to 1000 | COc1c(OCCCN2CCOCC2)ccc2c1N=C(NC(=O)c1cnc(NCCN(C)C)nc1)N1CCN=C21 [Example 45, 2-{[2-(dimethylamino)ethyl]amino}-N-[7-methoxy-8-(3-morpholin-4-ylpropoxy)-2,3-dihydroimidazo[1,2-c]quinazolin-5-yl]pyrimidine-5-carboxamide] | 
< 100 | COc1c(OCCCN(C)C)ccc2c1N=C(NC(=O)c1ccc(N)nc1)N1CCN=C21 [Example 46, 6-amino-N-{8-[3-(dimethylamino)propoxy]-7-methoxy-2,3-dihydroimidazo[1,2-c]quinazolin-5-yl}nicotinamide] | 
